Measurements published in US8088749B2, “Compositions and methods for treating cancer” (The Regents of the University of Michigan, priority 2007, dated 2012).

Tests used:
Assay type in all cases: cell-based, human
[1] = system: ATDC; assay: ATDC nuclear foci by immunofluorescence after gemcitabine, Panc-1 cells; conditions: gemcitabine (amount/time); 50 uM
Text: (A). Panc1 cells exposed to IR (5 Gy, 1 hr) were fixed and costained with anti-ATDC (red) and anti-γH2AX (green) antibodies. […] Cell nuclei were counterstained with DAPI (blue). (B) Panc-1 cells exposed to IR (5 Gy, 1 hr) and co-immunostained with anti-ATDC antibody (red) and anti-p-ATM antibody (green). Co-localization of ATDC (red) with p-ATM (green) is observed in yellow in the merged image. Experiments were repeated twice with similar results. […] Results representative of 3 separate experiments.
It has been well-documented that in response to DNA damage, numerous proteins involved in the DNA damage response traffic to discrete nuclear foci. […] Using double immunofluorescence staining, it was observed that ATDC co-localized with γH2AX (FIG. 7A), presumably at DNA damage foci. […] ATDC co-localized with ATR following gemcitabine treatment (FIG. 7B). The time course of ATDC localizing to DNA damage foci was similar to the time course of the formation of foci of phosphorylated H2AX. Whether ATDC is required for the formation of γH2AX and/or ATR foci in pancreatic cancer cells following gemcitabine was investigated.

[2] = system: ATDC; assay: ATDC phosphorylation in transfected HEK293 cells
Procedure: (B) Knockdown of ATM by specific ATM shRNA prevents IR induced phosphorylation of ATDC in Panc1 cells (n=3). (C) IR-dependent phosphorylation of ATDC occurs at serine 550. HEK 293 cells over-expressing wild type or S550A mutant ATDC were treated with IR (10 Gy) for varyin times (0-60 min). Cell lysates were harvested and co-immunoprecipitation experiments were performed using anti-ATDC and anti-phospho-serine/threonine antibodies. Results are representative of three separate experiments (D) Gemcitabine induces phosphorylation of ATDC in transfected HEK293 cells.
ATDC has overlapping function with ATM in cell cycle checkpoint activation and that trafficking of ATDC to DNA repair foci was dependent on ATM (see, e.g., FIGS. 4,6,7,8). ATDC had been shown previously to undergo phosphorylation on serine/threonine in A431 cells (see, e.g., Laderoute K R, et al., Int J Cancer 1996; 66: 772-778). It was hypothesized therefore that ATDC is a phosphorylation target of ATM and ATR. It is known that phosphorylation targets of ATM/ATR share a common motif, with either a serine or threonine residue, usually followed by a glutamine (the SQ or TQ motif) (see, e.g., Ziv Y, et al., Nature Cell Biol 2006; 8: 870-876). […] It was verified that ATDC functioned downstream of ATM, since silencing of ATDC had no effect on the phosphorylation of ATM in response to IR (FIG. 11A). […]

[3] = system: H2AX; assay: H2AX phosphorylation after gemcitabine, Panc-1 cells; conditions: control Panc-1 cells, gemcitabine 50 uM
Text: […] Top, flowcytometric analysis of γH2AX and propidium iodide staining of DNA content. […] Bottom, comparison of the total DNA content of the population (black) versus the γH2AX-positive fraction (green). Results are representative 3 separate experiments.

[4] = system: p53 and Chk1; assay: Phosphorylation of p53 and Chk1 in response to gemcitabine, Panc-1 cells; conditions: gemcitabine 10 μM; control shRNA Panc-1 cells
Procedure: To further investigate the role of ATDC in the DNA damage response, the effect of silencing ATDC on phosphorylation of p53 and Chk1 was investigated. In response to gemcitabine (10 μM), replication forks stall and the ATR signaling cascade is activated, which phosphorylates and activates several proteins critical to inducing the G1-S cell cycle checkpoint, including p53 and Chk1 (see, e.g., Ljungman M, Mutation Res 2005; 577: 203-216).

## Nc1ccn([C@@H]2O[C@H](CO)[C@@H](O)C2(F)F)c(=O)n1 [gemcitabine]
[1]
  ATDC nuclear foci formation: ATDC formed discrete nuclear foci
[2]
  phosphorylation of ATDC: induces
[3]
  time of induction of H2AX phosphorylation: ≤ 10 min
  time of return of H2AX phosphorylation to basal levels: 1 h
[3]; x hours
  H2AX phosphorylation: transient H2AX phosphorylation
[4]
  phosphorylation of p53 and Chk1: underwent phosphorylation
